Assay [1] addresses T1, IRAK4 (Homo sapiens (Human), UniProt Q9NWZ3). The assay can be described thus: IRAK4 Biochemical HTRF Kinase Assay. The following applies: Table 5; multiple runs; read-out: IRAK4 HTRF biochemical: IC50. The gist of the method:
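HTRF KinEASE STK S1 format measuring IRAK4 phosphorylation of biotinylated peptide; reaction solution of 5 μM STK-S1, 10 mM ATP, 10 mM MgCl2 added (stock, to 10 μl final), 90 min at ambient temperature, detection 60 min. IC50 from sixteen-point duplicate curves by non-linear regression.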
(TR-FRET usually uses a lanthanide donor and a delayed reading to cut background.)
Target sequence in this assay (Q9NWZ3 whole entry, species assumed): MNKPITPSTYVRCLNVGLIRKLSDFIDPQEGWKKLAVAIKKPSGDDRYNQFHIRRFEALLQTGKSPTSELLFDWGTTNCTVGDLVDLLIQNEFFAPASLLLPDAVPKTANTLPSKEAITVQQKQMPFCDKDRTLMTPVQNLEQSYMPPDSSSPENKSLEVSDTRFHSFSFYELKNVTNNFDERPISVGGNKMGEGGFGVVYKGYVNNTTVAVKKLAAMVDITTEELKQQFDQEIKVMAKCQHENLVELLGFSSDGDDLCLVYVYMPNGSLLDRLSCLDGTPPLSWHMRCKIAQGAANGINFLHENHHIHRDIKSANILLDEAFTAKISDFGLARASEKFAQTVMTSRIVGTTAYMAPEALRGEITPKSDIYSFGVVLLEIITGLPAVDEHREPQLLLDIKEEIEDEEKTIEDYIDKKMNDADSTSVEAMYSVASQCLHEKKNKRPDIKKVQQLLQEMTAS

For assay [2], the target named is T1, IRAK4. The assay can be described thus: IRAK4 Degradation HiBiT Assay. The following applies: multiple runs, HiBiT-tagged Jurkat cells, 4 hrs; for Dmax: Jurkat, read-out: Cellular IRAK4 HiBiT: Dmax, Table 5; for DC50: read-out: Cellular IRAK4 HiBiT: DC50, Table 5.
Target sequence in this assay (Q9NWZ3 whole entry): as the sequence (Q9NWZ3 whole entry, species assumed) above

As to `CNc1cc(-c2ccc3cc(C#N)cnn23)ncc1-c1nnc([C@H]2CC[C@H](NC(=O)COc3cc(-c4scnc4C)ccc3CNC(=O)[C@@H]3C[C@@H](O)CN3C(=O)[C@@H](NC(=O)C3(F)CC3)C(C)(C)C)CC2)s1` [Example 159, (2S,4R)—N-(2-(2-(((1r,4S)-4-(5-(6-(3-cyanopyrrolo[1,2-b]pyridazin-7-yl)-4-(methylamino)pyridin-3-yl)-1,3,4-thiadiazol-2-yl)cyclohexyl)amino)-2-oxoethoxy)-4-(4-methylthiazol-5-yl)benzyl)-1-((S)-2-(1-fluorocyclopropane-1-carboxamido)-3,3-dimethylbutanoyl)-4-hydroxypyrrolidine-2-carboxamide], the concentration for half-maximal inhibition (IC50) in assay [1] is 2.1 nM. Further, in assay [2], the Dmax came to 116% and the DC50 worked out at 111 nM.
The matching figures for `CNc1cc(-c2ccc3cc(C#N)cnn23)ncc1-c1nnc(N2CCN(C(=O)C[C@H](NC(=O)[C@@H]3C[C@@H](O)CN3C(=O)[C@@H](NC(=O)C3(F)CC3)C(C)(C)C)c3ccc(-c4scnc4C)cc3)CC2)s1` [Example 160, (2S,4R)—N—((S)-3-(4-(5-(6-(3-cyanopyrrolo[1,2-b]pyridazin-7-yl)-4-(methylamino)pyridin-3-yl)-1,3,4-thiadiazol-2-yl)piperazin-1-yl)-1-(4-(4-methylthiazol-5-yl)phenyl)-3-oxopropyl)-1-((S)-2-(1-fluorocyclopropane-1-carboxamido)-3,3-dimethylbutanoyl)-4-hydroxypyrrolidine-2-carboxamide]: 1.1 nM, 97% and 85.8 nM.
In the case of `CNc1cc(-c2ccc3cc(C#N)cnn23)ncc1-c1nnc(N2CCN(CC3CCN(c4ccc(C(=O)NC5CCC(=O)NC5=O)nc4)CC3)CC2)s1` (stereo not drawn) [Example 161, 5-(4-((4-(5-(6-(3-cyanopyrrolo[1,2-b]pyridazin-7-yl)-4-(methylamino)pyridin-3-yl)-1,3,4-thiadiazol-2-yl)piperazin-1-yl)methyl)piperidin-1-yl)-N-(2,6-dioxopiperidin-3-yl)picolinamide], in assay [1], the IC50 was found to be 1.4 nM. In assay [2], the Dmax was determined as 56% and the 50% degradation concentration (DC50) was 24.6 nM.
The matching figures for `CNc1cc(-c2ccc3cc(C#N)cnn23)ncc1-c1nnc(N2CC3CCC(C2)N3C2CCN(C(=O)c3ccc4c(c3)C(=O)N(C3CCC(=O)NC3=O)C4)CC2)s1` (stereo not drawn) [Example 162, 7-(5-(5-(8-(1-(2-(2,6-dioxopiperidin-3-yl)-3-oxoisoindoline-5-carbonyl)piperidin-4-yl)-3,8-diazabicyclo[3.2.1]octan-3-yl)-1,3,4-thiadiazol-2-yl)-4-(methylamino)pyridin-2-yl)pyrrolo[1,2-b]pyridazine-3-carbonitrile]: 0.4 nM, 110% and 10.5 nM.
The matching figures for `CNc1cc(-c2ccc3cc(C#N)cnn23)ncc1-c1nnc([C@H]2CC[C@H](N(C)C(=O)C[C@H](NC(=O)[C@@H]3C[C@@H](O)CN3C(=O)[C@@H](NC(=O)C3(F)CC3)C(C)(C)C)c3ccc(-c4scnc4C)cc3)CC2)s1` [Example 163, (2S,4R)—N—((S)-3-(((1r,4S)-4-(5-(6-(3-cyanopyrrolo[1,2-b]pyridazin-7-yl)-4-(methylamino)pyridin-3-yl)-1,3,4-thiadiazol-2-yl)cyclohexyl)(methyl)amino)-1-(4-(4-methylthiazol-5-yl)phenyl)-3-oxopropyl)-1-((S)-2-(1-fluorocyclopropane-1-carboxamido)-3,3-dimethylbutanoyl)-4-hydroxypyrrolidine-2-carboxamide]: 1 nM, 113% and 65.9 nM.
For `CNc1cc(-c2ccc3cc(C#N)cnn23)ncc1-c1nnc(N2CC3CCC(C2)N3C2CCN(C(=O)Cc3ccc4c(c3)CN(C3CCC(=O)NC3=O)C4=O)CC2)s1` (stereo not drawn) [Example 164, 7-(5-(5-(8-(1-(2-(2-(2,6-dioxopiperidin-3-yl)-1-oxoisoindolin-5-yl)acetyl)piperidin-4-yl)-3,8-diazabicyclo[3.2.1]octan-3-yl)-1,3,4-thiadiazol-2-yl)-4-(methylamino)pyridin-2-yl)pyrrolo[1,2-b]pyridazine-3-carbonitrile], in that order: 0.4 nM, 109% and 5.64 nM.
`CNc1cc(-c2ccc3cc(C#N)cnn23)ncc1-c1nnc(N2CC3CCC(C2)N3C2CCN(Cc3ccc4c(c3)C(=O)N(C3CCC(=O)NC3=O)C4=O)CC2)s1` (stereo not drawn) [Example 165, 7-(5-(5-(8-(1-((2-(2,6-dioxopiperidin-3-yl)-1,3-dioxoisoindolin-5-yl)methyl)piperidin-4-yl)-3,8-diazabicyclo[3.2.1]octan-3-yl)-1,3,4-thiadiazol-2-yl)-4-(methylamino)pyridin-2-yl)pyrrolo[1,2-b]pyridazine-3-carbonitrile]: the IC50 in assay [1] came to 0.4 nM. Besides, in assay [2], the Dmax came to 100% and the DC50 came to 21 nM.
Take `CNc1cc(-c2ccc3cc(C#N)cnn23)ncc1-c1nnc(N2CC3CCC(C2)N3C2CCN(C(=O)C[C@H](NC(=O)[C@@H]3C[C@@H](O)CN3C(=O)[C@@H](NC(=O)C3(F)CC3)C(C)(C)C)c3ccc(-c4scnc4C)cc3)CC2)s1` [Example 166, (2S,4R)—N-((1S)-3-(4-(3-(5-(6-(3-cyanopyrrolo[1,2-b]pyridazin-7-yl)-4-(methylamino)pyridin-3-yl)-1,3,4-thiadiazol-2-yl)-3,8-diazabicyclo[3.2.1]octan-8-yl)piperidin-1-yl)-1-(4-(4-methylthiazol-5-yl)phenyl)-3-oxopropyl)-1-((S)-2-(1-fluorocyclopropane-1-carboxamido)-3,3-dimethylbutanoyl)-4-hydroxypyrrolidine-2-carboxamide]: in assay [1], the half-inhibitory concentration (IC50) is 1 nM. For the same molecule, in assay [2], the Dmax came to 114% and the 50% degradation concentration (DC50) was 67.7 nM.
The matching figures for `CNc1cc(-c2ccc3cc(C#N)cnn23)ncc1-c1nnc([C@H]2CC[C@H](N(C)CC3CCN(c4ccc(C(=O)NC5CCC(=O)NC5=O)nc4)CC3)CC2)s1` (stereo partly drawn) [Example 167, 5-(4-((((1r,4r)-4-(5-(6-(3-cyanopyrrolo[1,2-b]pyridazin-7-yl)-4-(methylamino)pyridin-3-yl)-1,3,4-thiadiazol-2-yl)cyclohexyl)(methyl)amino)methyl)piperidin-1-yl)-N-(2,6-dioxopiperidin-3-yl)picolinamide]: 0.5 nM, 107% and 20.1 nM.
For `CNc1cc(-c2ccc3cc(C#N)cnn23)ncc1-c1nnc([C@H]2CC[C@H](N(C)C(=O)Cc3ccc4c(c3)CN(C3CCC(=O)NC3=O)C4=O)CC2)s1` (stereo partly drawn) [Example 168, N-((1r,4r)-4-(5-(6-(3-cyanopyrrolo[1,2-b]pyridazin-7-yl)-4-(methylamino)pyridin-3-yl)-1,3,4-thiadiazol-2-yl)cyclohexyl)-2-(2-(2,6-dioxopiperidin-3-yl)-1-oxoisoindolin-5-yl)-N-methylacetamide], in that order: 0.6 nM, 20% and 2.63 nM.

The IC50 is the concentration at which inhibition is half-maximal. Broadly, the Dmax is the greatest extent of degradation seen. For orientation: DC50 means the midpoint of the concentration-degradation curve.

For the origin of these results see US12528814B2, “Bifunctional degraders of interleukin-1 receptor-associated kinases and therapeutic use thereof” (NURIX THERAPEUTICS, INC., priority 2020, dated 2026).
